Assay results reported in patent publication US20230395193A1 (priority 2020, published 2023).

What was measured:
SARS-CoV-2 [1] = format: cell-based
SARS-CoV-1 (Urbani) = format: cell-based
SARS-CoV-2 [2] = format: cell-based; remark: listed apart in the source
SARS-CoV-1 = settings: cited from earlier work
canine coronavirus = settings: previous study (Amici et al. 2006); cited from earlier work
[3] = system: SARS-CoV-1, MERS-CoV and SARS-CoV-2 proteins in HEK293T cells; parameters: species or system human

CCCCc1oc2ccccc2c1C(=O)c1cc(I)c(OCCN(CC)CC)c(I)c1 [amiodarone]
Antiviral activity against SARS-CoV-2 (in words) (SARS-CoV-2 [1]): inhibited
Antiviral activity against SARS-CoV-1 (in words) (SARS-CoV-1 (Urbani)): inhibited

COc1ccc2c(c1)c(CC(=O)O)c(C)n2C(=O)c1ccc(Cl)cc1 [indomethacin]
Inhibition of SARS-CoV-2 in vitro (in words) (SARS-CoV-2 [2]): did not inhibit SARS-CoV-2 in vitro at reasonable antiviral concentrations
Inhibition of SARS-CoV-1 in vitro (in words) (SARS-CoV-1): similarly high levels of the drug were needed for inhibition
Efficacy against canine coronavirus in vivo (in words) (canine coronavirus): showed efficacy

E-Q8WVM8
MIST_MERS [3]: 0.7214
MIST_SARS1 [3]: 0.3063
MIST_SARS2 [3]: 0
Saint_MERS [3]: 0.95
Saint_SARS1 [3]: 0
Saint_SARS2 [3]: 0

E-Q9UBS3
MIST_MERS [3]: 0.9729
MIST_SARS1 [3]: 0
MIST_SARS2 [3]: 0
Saint_MERS [3]: 0.98
Saint_SARS1 [3]: 0
Saint_SARS2 [3]: 0

E-Q9ULP9
MIST_MERS [3]: 0
MIST_SARS1 [3]: 0.9165
MIST_SARS2 [3]: 0
Saint_MERS [3]: 0
Saint_SARS1 [3]: 0.97
Saint_SARS2 [3]: 0

M-Q8TEM1
MIST_MERS [3]: 0.7258
MIST_SARS1 [3]: 0.02986
MIST_SARS2 [3]: 0
Saint_MERS [3]: 1
Saint_SARS1 [3]: 0
Saint_SARS2 [3]: 0

M-Q9NVH2
MIST_MERS [3]: 0
MIST_SARS1 [3]: 0.8943
MIST_SARS2 [3]: 0.8082
Saint_MERS [3]: 0
Saint_SARS1 [3]: 0.97
Saint_SARS2 [3]: 0.64

M-Q96HW7
MIST_MERS [3]: 0
MIST_SARS1 [3]: 0.8124
MIST_SARS2 [3]: 0.9433
Saint_MERS [3]: 0
Saint_SARS1 [3]: 0.33
Saint_SARS2 [3]: 0.65
